Assay results taken from patent publication US6133273A, “Pyrazolopyrimidine-2,4-dione sulfonamides” (American Home Products Corporation, priority 1999, dated 2000).

How the values were obtained:
[1] = tested on: promoter region of the human calcitonin gene (luciferase reporter, C1-3 cells); assay: Calcitonin/Luciferase Reporter Gene Expression Assay; settings: for fold induction at 30 µM: read-out: TAR (transcription activation ratio)
Procedure: This assay was used to determine the ability of a compound to stimulate transcription of a luciferase reporter gene regulated by 3 kb of the promoter region of the human calcitonin gene.
C1-3 cells were plated at a density of 6,500-7,500 cells per well in a 96-plate microtiter plate. Twenty-four to forty-eight hours later, compounds were added to the wells in triplicate. Compounds were tested at a concentration of 10 μg/mL in 0.5% DMSO.
The production of light is measured on a luminometer.
TAR Ratio: Stimulation of calcitonin promoter-dependent transcription is expressed as a ratio of luciferase activity (LUCI) in the presence of test compound compared to the LUCI activity in the untreated control: [formula]

PDE-IV = assay: Inhibition of Phosphodiesterase IV (PDE-IV) isolated from human U937 cells; format: biochemical; settings: U937 cell PDE-IV, 1 μM [3H]-cAMP, 37° C., test compound 0.001 μM to 10 μM
Procedure: This assay was used to biochemically assess the ability of a test compound to inhibit PDE-IV isolated from a U937 cell line, where PDE-IV refers to the cGMP-insensitive, cAMP-selective PDE.
Cell Culture: U937 cells were grown in RPMI 1640 medium supplemented with 10% heat-inactivated fetal calf serum and Penicillin/Streptomycin (100 units/100 μg per mL) in a humidified 5% CO2 atmosphere at 37° C. Starter cells were maintained in continuous logarithmic growth by seeding them in 75 cm^2 vented tissue culture flasks at a concentration of 3×10^4 cells/mL and passing them every 3-4 days when the cells reached approximately 8×10^5 cells/mL. For experiments, 3-4 day starter cells were seeded in 225 cm^2 flasks at 1×10^5 cells/mL and harvested 3-4 days later at approx. 6×10^5 cells/mL.
Isolation of PDE-IV: U937 cells were activated with 10 μM dibutyryl cAMP for a period of 4 hours (to up-regulate PDE-IV) and then harvested by centrifugation at 1200×g for 10 min in 250 mL conical centrifuge tubes. The pellet from each 200 mL flask was resuspended in 5 mL buffer A [10 mM Tris-HCl, 5 mM MgCl2, 4 mM EGTA, 5 mM 2-mercaptoethanol, 1 μM leupeptin, 1 μM pepstatin A, and 5 μM phenylmethyl sulfonyl fluoride (PMSF) (pH 7.8)], and the cells were lysed using 3 cycles of freezing (3 min in dry ice/acetone) followed by thawing (warm water). […] To determine which families of PDEs were present, fractions may be assayed for hydrolytic activity with 1 μM [^3 H]-cAMP or 1 μM [^3 H]-cGMP. Additionally, 1 μM [^3 H]-cAMP assays were conducted in the presence of 10 μM rolipram, 10 μM cGMP, or calmodulin (1 unit/0.4 mL plus 10 μM CaCl2).
When prepared in this manner, approximately 80% of total cAMP PDE activity is eluted by Buffer B containing 0.7 M sodium acetate. This PDE activity consists of>90% PDE-IV (as evidenced by its susceptibility to inhibition by rolipram.
PDE assay: PDE activity was measured using a modification of the radioisotope procedure previously described by Thompson et al. (Thompson, W. J., Terasaki, W. L., Epstein, P. M. and Strada, S. J. Adv, Cyclic Nucleotide Res. 1979, 10, 69). Reaction mixtures (0.4 mL) contain 40 mM Tris-HCl (pH 7.8), 4 mM 2-mercaptoethanol, 5 mM MgCl2, 0.1 μM leupeptin, 0.1 μM pepstatin A, 0.1 μM PMSF, 1 μM [3H]-cAMP or 1 μM [^3 H]-cGMP (~200,000 DPM), and enzyme to initiate the reaction. ^3 H-cAMP substrate was prepared as follows: A stock solution of ^3 H-cyclic nucleotide (1000 μCi/mL) was diluted 1:10 in 50% EtOH. 200 μl of this diluted stock solution was added to a cold (unlabeled) cyclic nucleotide solution, made at a concentration of 4 μM. 100 μl of this solution was used per assay tube to achieve a final concentration of 1 μM cyclic nucleotide per assay tube (200,000 DPM). Enzyme activity was determined at 37° C. Reactions were terminated by boiling, incubating with snake venom, and cooling as previously described (Thompson et al., 1979). The reaction mixture was applied to a (0.8×8.5 cm) column containing 0.4 g Dowex I-X8 affinity resin; reaction tubes were rinsed with 0.5 mL of methanol; and this, along with an extra 1 mL of methanol, was applied to the column to elute the ^3 H-reaction products. After all liquid has passed through the column, the column was plunged with a 12 cc syringe plunger. Each column's eluate was collected in a 20 mL scintillation vial containing 10 mL aquasol-2 and counted by scintillation spectrophotometry. [^3 H]-adenosine or [^3 H]-guanosine recovery was corrected for background DPM determined in the absence of enzyme. The amount of enzyme and duration of assay were adjusted to ensure that less than 25% of the substrate was consumed under these conditions.
Measurements: Inhibition by a test compound was measured as a percent reduction of total PDE activity, and calculated as follows: [formula] where A is the PDE activity (mean DPM-background DPM) in the presence of test compound, and B is the total PDE-IV activity (mean DPM-background DPM) in the absence of test compound. […]

[2] = tested on: C1-3 cell line (calcitonin secretion); assay: Calcitonin Secretion/RIA Assay; format: cell-based, human; settings: active if >2.5; for fold induction at 30 µM: Homo sapiens, C13, ratio of calcitonin secretion vs untreated control
Procedure: Cell Line: C1-3 (Parent Cell Line: TT-medullary thyroid carcinoma),
Reagent A--(Anti-Calcitonin)
Regent C--(Anti-Goat Precipitant)
Regent D--(Zero Standard).
Reagents E-I--(Calcitonin Standards)
Reagents J-K (Calcitonin Controls: Level and Level 2)
1. Glass tubes were labeled to include Total Count (TC), Nonspecific Binding (NSB), Maximum Binding (Bo), Standards, Controls and Patient Sera in duplicate.
2. […] of Standard Zero (Reagent D) was added to tubes 3 through 6 (NSB and Bo).
3. […] of Standards* (Reagents E-1) was added to tubes 7-16 as follows:
4. […] of Patient Serum 1 was added to tubes 21 and 22, Patient Serum 2 was added to tubes 23 and 24, etc.
5. […] of Reagent L (NSB Buffer) was added to tubes 3 and 4.
6. […] of Reagent A (Anti-Calcitonin) was added to all tubes except tubes 1 & 2 (TC) and tube 3 & 4 (NSB). All tubes were vortexed, covered with parafilm or foil and incubated 44±6 hours at 2-8° C.
7. […] All tubes were vortexed, covered with parafilm or foil and incubated 22±3 hours at 2-8° C.
8. Reagent C (Anti-Goat Precipitant) was mixed gently but thoroughly by inverting the vial several times before use. 1 mL Reagent C was added to all tubes except 1 and 2 (TC). Tubes were vortexed and incubated 20 minutes at room temperature.
9. All tubes were centrifuged at 1300-1500×g for 15 minutes at 2-8° C.
10. Supernatant was decanted immediately after centrifugation taking care to leave the precipitate intact.
11. Tubes were counted 4 minutes or longer.
Secretion Ratio: Stimulation of calcitonin secretion is expressed as a ratio of secretion activity in the presence of test compound compared to the secretion activity in the untreated control: [formula]

Molecule | TAR (transcription activation ratio) ([1]; 30 μM, ratio of luciferase activity vs untreated control, active if TAR>1.5) | % Inhibition of PDE IV (normalized to rolipram) (PDE-IV) [%] | Secretion Ratio ([2]; 30 μM, ratio of calcitonin secretion vs untreated control) | fold induction at 30 µM ([1]; Homo sapiens, C13, 12 h) | fold induction at 30 µM [2] | fold induction at 1000 µM ([1]; Homo sapiens, C13, 12 h, read-out: fold induction of luciferase (control stimulation))
4,6-Dibutyl-1-(propane-1-sulfonyl)-1,4-dihydro-pyrazolo[4,3-d]pyrimidine-5,7-dione [Example 9] | 1.47 | 27 | 2.71 |  |  | 
CCCCn1c(=O)c2nn(S(=O)(=O)CCCCl)cc2n(CCCC)c1=O [Example 1, 4,6-Dibutyl-3-chloropropanesulfonyl-2,4-dihydro-pyrazolo[4,3-d]pyrimidine-5,7-dione] |  |  |  | 1.34 | 4.35 | 
CCCCn1c(=O)c2nn(S(=O)(=O)Cc3ccccc3)cc2n(CCCC)c1=O [Example 2, 4,6-Dibutyl-2-phenylmethanesulfonyl-2,4-dihydro-pyrazolo[4,3-d]pyrimidine-5,7-dione] |  | 35 |  | 1.51 | 2.55 | 
CCCCn1c(=O)c2nn(S(=O)(=O)c3cccc(C(F)(F)F)c3)cc2n(CCCC)c1=O [Example 3, 4,6-Dibutyl-2-(3-trifluoromethyl-benzenesulfonyl)-2,4-dihydro-pyrazolo[4,3-d]pyrimidine-5,7-dione] |  | 68 |  | 1.79 | 3.79 | 
Nc1ncnc2c1nc(Sc1ccc(Cl)cc1)n2[C@@H]1O[C@@H]2COP(=O)(O)O[C@H]2[C@H]1O [Example 8-CPT-cAMP, 8-CPT-cAMP, reference compound] |  |  |  |  |  | 2 to 3
CCCCn1c(=O)c2nn(S(=O)(=O)c3c(Cl)cc(Cl)cc3Cl)cc2n(CCCC)c1=O [Example 11, 4,6-Dibutyl-2-(2,4,6-trichloro-benzenesulfonyl)-2,4-dihydro-pyrazolo[4,3-d]pyrimidine-5,7-dione] |  | 26 |  | 1.76 | 4.31 | 
CCCCn1c(=O)c2nn(S(=O)(=O)c3cccc4cccnc34)cc2n(CCCC)c1=O [Example 12, 4,6-Dibutyl-2-(quinoline-8-sulfonyl)-2,4-dihydro-pyrazolo[4,3-d]pyrimidine-5,7-dione] |  | 41 |  | 2.22 | 3.83 | 
CCCCn1c(=O)c2cn(S(=O)(=O)CCCCl)nc2n(CCCC)c1=O [Example 13, 5,7-Dibutyl-2-(3-chloro-propane-1-sulfonyl)-2,7-dihydro-pyrazolo[3,4-d]pyrimidine-4,6-dione] |  | 34 |  | 1.91 | 2.71 | 
CCCCn1c(=O)c2cn(S(=O)(=O)c3ccc(OC(F)(F)F)cc3)nc2n(CCCC)c1=O [Example 14, 5,7-Dibutyl-2-(4-trifluoromethoxy-benzenesulfonyl)-2,7-dihydro-pyrazolo[3,4-d]pyrimidine-4,6-dione] |  | 92 |  | 2.22 | 4.29 | 
CCCCn1c(=O)c2cn(S(=O)(=O)c3cc(Cl)c(Cl)s3)nc2n(CCCC)c1=O [Example 15, 5,7-Dibutyl-2-(4,5-dichloro-thiophene-2-sulfonyl)-2,7-dihydro-pyrazolo[3,4-d]pyrimidine-4,6-dione] |  | 59 |  | 2.93 | 3.67 | 
CCCCn1c(=O)c2cn(S(=O)(=O)c3ccc(C(F)(F)F)cc3)nc2n(CCCC)c1=O [Example 16, 5,7-Dibutyl-2-(4-trifluoromethyl-benzenesulfonyl)-2,7-dihydro-pyrazolo[3,4-d]pyrimidine-4,6-dione] |  | 62 |  | 2.61 | 3.86 | 
CCCCn1c(=O)c2cn(S(C)(=O)=O)nc2n(CCCC)c1=O [Example 17, 5,7-Dibutyl-2-methanesulfonyl-2,7-dihydro-pyrazolo[3,4-d]pyrimidine-4,6-dione] |  | 17 |  | 1.95 | 3.93 | 
CCCCn1c(=O)n(C)c(=O)c2nn(S(=O)(=O)CCCCl)cc21 [Example 18, 4-Butyl-2-(3-chloro-propane-1-sulfonyl)-6-methyl-2,4-dihydro-pyrazolo[4,3-d]pyrimidine-5,7-dione] |  | 34 |  | 1.1 | 1.38 | 
CCCCn1c(=O)c2cn(S(=O)(=O)Cc3ccccc3)nc2n(CCCC)c1=O [Example 19, 5,7-Dibutyl-2-phenylmethanesulfonyl-1,7-dihydro-pyrazolo[3,4-d]pyrimidine-4,6-dione] |  | 48 |  | 1.97 | 3.43 | 
CCCCn1c(=O)c2nn(S(=O)(=O)CCCCl)cc2n(CCC(C)C)c1=O [Example 20, 6-Butyl-2-(3-chloro-propane-1-sulfonyl)-4-(3-methyl-butyl)-2,4-dihydro-pyrazolo[4,3-d]pyrimidine-5,7-dione] |  | 42 |  | 1.57 | 2.25 | 
Cn1c(=O)c2cn(S(=O)(=O)CCCCl)nc2n(C)c1=O [Example 21, 2-(3-Chloro-propane-1-sulfonyl)-5,7-dimethyl-2,7-dihydro-pyrazolo[3,4-d]pyrimidine-4,6-dione] |  | 68 |  | 1.2 | 1.02 | 
O=c1c2cn(S(=O)(=O)CCCCl)nc2n(CC2CC2)c(=O)n1CC1CC1 [Example 22, 2-(3-Chloro-propane-1-sulfonyl)-5,7-bis-cyclopropylmethyl-2,7-dihydro-pyrazolo[3,4-d]pyrimidine-4,6-dione] |  | 30 |  | 1.6 | 2.93 | 
